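96-well plates; 48 h exposure; 5 concentrations. Endpoints by linear interpolation between flanking doses. Not reached: highest tested concentration assigned. GI50 marks 50% less growth.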 Calls of active or inactive are those of the source. Rule as the data show it: active = GI50 up to about 1.1 µM and inactive = higher.
Assays:
Experiment in all cases: inhibition of tumour cell growth, NCI panel, 48 h
NCI-H226 = system: NCI-H226
DMS-114 = system: DMS-114
ACHN = system: ACHN
Malme-3M = system: Malme-3M
SK-MEL-2 = system: SK-MEL-2
UACC-62 = system: UACC-62
DLD-1 = system: DLD-1
HOP-18 = system: HOP-18
TK-10 = system: TK-10
EKVX = system: EKVX
CAKI-1 = system: CAKI-1
HOP-62 = system: HOP-62
OVCAR-5 = system: OVCAR-5
HCC 2998 = system: HCC 2998
NCI/ADR-RES = system: NCI/ADR-RES
SR = system: SR

Measured: GI50

CC1(C)OP23(NC(=O)OC2(C(F)(F)F)c2ccccc2O3)OC1(C)C (configuration not stated)
inactive: NCI-H226 > 100 µM | DMS-114 > 100 µM | ACHN > 100 µM | Malme-3M > 100 µM | SK-MEL-2 > 100 µM | UACC-62 > 100 µM | DLD-1 > 100 µM | HOP-18 > 100 µM | TK-10 > 100 µM

COc1cc(C2C(C(=O)O)=C(CO)Oc3cc4c(cc32)OCO4)cc(OC)c1O (configuration not stated)
inactive: DMS-114 > 100 µM | EKVX > 100 µM | ACHN > 100 µM | CAKI-1 > 100 µM | Malme-3M > 100 µM | UACC-62 > 100 µM | HOP-62 > 100 µM | DLD-1 > 100 µM | HOP-18 > 100 µM | TK-10 > 100 µM

O=C(NN1C(=O)CS(=O)(=O)C1c1ccc(Cl)c(Cl)c1)c1ccncc1 (configuration not stated)
inactive: NCI-H226 > 100 µM | DMS-114 61.2 µM | OVCAR-5 > 62.2 µM | HCC 2998 > 100 µM | EKVX > 74 µM | CAKI-1 > 100 µM | Malme-3M > 100 µM | SK-MEL-2 > 100 µM | NCI/ADR-RES > 92.7 µM | UACC-62 > 100 µM | HOP-62 > 100 µM | DLD-1 > 100 µM | HOP-18 > 100 µM

C[Si](C)(C)/C=C/CN1C(=O)CCC1=O
inactive: DMS-114 > 100 µM | OVCAR-5 > 100 µM | HCC 2998 > 100 µM | EKVX > 100 µM | ACHN > 100 µM | Malme-3M > 100 µM | SK-MEL-2 > 100 µM | UACC-62 > 100 µM | SR > 100 µM | DLD-1 > 100 µM | HOP-18 40.1 µM | TK-10 > 100 µM

O=c1[nH]c(=O)n(C2CC(O)C(CO)O2)cc1C(OCC(F)(F)F)OCC(F)(F)F (configuration not stated)
inactive: DMS-114 > 100 µM | OVCAR-5 > 100 µM | HCC 2998 > 100 µM | EKVX > 100 µM | ACHN > 100 µM | CAKI-1 > 100 µM | Malme-3M > 100 µM | SK-MEL-2 > 100 µM | UACC-62 > 100 µM | HOP-62 > 100 µM | DLD-1 > 100 µM | TK-10 > 100 µM

CN(C)C(=S)/N=c1\ssc(=S)n1C
inactive: NCI-H226 > 100 µM | DMS-114 > 100 µM | OVCAR-5 > 100 µM | HCC 2998 > 100 µM | EKVX > 100 µM | ACHN > 100 µM | CAKI-1 > 100 µM | Malme-3M > 100 µM | SK-MEL-2 > 100 µM | UACC-62 > 100 µM | HOP-62 > 100 µM | SR > 100 µM | DLD-1 > 100 µM | HOP-18 > 100 µM | TK-10 > 100 µM

O=[N+]([O-])c1ccc2[nH]c3c(-c4ccccc4)nccc3c2c1
inactive: NCI-H226 9.75 µM | DMS-114 18.9 µM | OVCAR-5 67.8 µM | HCC 2998 19.5 µM | EKVX 21.1 µM | Malme-3M 18.9 µM | SK-MEL-2 35 µM | NCI/ADR-RES 16 µM | UACC-62 14.8 µM | HOP-62 14.7 µM | DLD-1 3.73 µM | HOP-18 18 µM

C[N+](C)([O-])CCOc1cc2c(c3ccccc13)-c1ccccc1C2=O
inactive: NCI-H226 15.7 µM | DMS-114 7.83 µM | OVCAR-5 24 µM | HCC 2998 13.7 µM | EKVX 25.9 µM | CAKI-1 21.5 µM | Malme-3M 14 µM | SK-MEL-2 18.4 µM | NCI/ADR-RES 14.3 µM | UACC-62 14.4 µM | HOP-62 14.2 µM | DLD-1 17 µM | HOP-18 29.1 µM

O=C(O)C12CCCCC1CCCC2 (configuration not stated)
inactive: NCI-H226 > 100 µM | DMS-114 > 100 µM | OVCAR-5 > 100 µM | HCC 2998 > 100 µM | EKVX > 100 µM | ACHN > 100 µM | CAKI-1 > 100 µM | UACC-62 > 100 µM | HOP-62 > 100 µM | DLD-1 > 100 µM | HOP-18 > 100 µM | TK-10 > 100 µM

COc1c(Br)cc(CC(N)=O)c(O)c1Br
inactive: NCI-H226 > 100 µM | DMS-114 > 100 µM | OVCAR-5 > 100 µM | HCC 2998 > 100 µM | EKVX > 100 µM | ACHN > 100 µM | CAKI-1 > 100 µM | Malme-3M > 100 µM | SK-MEL-2 > 100 µM | UACC-62 > 100 µM | HOP-62 > 100 µM | SR > 100 µM | DLD-1 > 100 µM | HOP-18 > 100 µM | TK-10 > 100 µM

CN(C)CCNC(=O)c1cccc2ccc(-c3ccc(F)cc3)nc12
inactive: NCI-H226 3.53 µM | DMS-114 5.48 µM | OVCAR-5 7.55 µM | HCC 2998 6.46 µM | CAKI-1 2.69 µM | Malme-3M 4.9 µM | SK-MEL-2 9.18 µM | NCI/ADR-RES 3.18 µM | UACC-62 3.95 µM | HOP-62 11.7 µM | DLD-1 3.64 µM | HOP-18 17.4 µM

COc1nc(SC)nc2c1cnn2C1OC(C(O)CO)C(OC)C1O (configuration not stated)
inactive: NCI-H226 > 100 µM | DMS-114 > 80 µM | OVCAR-5 > 100 µM | HCC 2998 > 100 µM | EKVX > 100 µM | Malme-3M > 100 µM | SK-MEL-2 > 100 µM | NCI/ADR-RES > 100 µM | UACC-62 > 65.6 µM | HOP-62 > 100 µM | DLD-1 > 100 µM | HOP-18 > 100 µM

Source: ChEMBL document CHEMBL1201862, “PubChem BioAssay data set” (2004)
